Test results: patent US20110046170A1, “NOVEL PYRIMIDINE-PYRIDINE DERIVATIVES” (priority 2008, published 2011)
pEC50: −log10 of the molar value.

These compounds were tested against human S1P1 receptor (Homo sapiens, UniProt P21453) (assay: GTPγS assay to determine EC50 values). Details: 35S-GTPγS binding, membrane preparations of CHO cells expressing recombinant human S1P1 receptor.
Assay type: biochemical
Method: GTPγS Assay to Determine EC50 Values
GTPγS binding assays are performed in 96 well microtiter plates (Nunc, 442587) in a final volume of 200 μl, using membrane preparations of CHO cells expressing recombinant human S1P1 receptor. Assay conditions are 20 mM Hepes (Fluka, 54461), 100 mM NaCl (Fluka, 71378), 5 mM MgCl2 (Fluka, 63064), 0.1% BSA (Calbiochem, 126609), 1 μM GDP (Sigma, G-7127), 2.5% DMSO (Fluka, 41644), 50 pM ^35S-GTPγS (Amersham Biosciences, SJ1320). The pH is 7.4. Test compounds are dissolved and diluted in 100% DMSO and pre-incubated at rt for 30 min in 150 μl of the above assay buffer, in the absence of ^35S-GTPγS. After addition of 50 μl of ^35S-GTPγS, the assay is incubated for 1 h at rt. The assay is terminated by transfer of the reaction mixture to a Multiscreen plate (Millipore, MAHFC1H60) using a cell harvester from Packard Biosciences, and the plates are washed with ice-cold 10 mM Na2HPO4/NaH2PO4 (70%/30%), dried, sealed at the bottom and, after addition of 25 μl MicroScint20 (Packard Biosciences, order# 6013621), sealed on the top. Membrane-bound ^35S-GTPγS is measured with a TopCount from Packard Biosciences.
EC50 is the concentration of agonist inducing 50% of the maximal specific ^35S-GTPγS binding. Specific binding is determined by subtracting non-specific binding from maximal binding. Maximal binding is the amount of cpm bound to the Multiscreen plate in the presence of 10 μM of S1P. Non-specific binding is the amount of binding in the absence of an agonist in the assay.

Sequence of human S1P1 receptor (P21453 whole entry): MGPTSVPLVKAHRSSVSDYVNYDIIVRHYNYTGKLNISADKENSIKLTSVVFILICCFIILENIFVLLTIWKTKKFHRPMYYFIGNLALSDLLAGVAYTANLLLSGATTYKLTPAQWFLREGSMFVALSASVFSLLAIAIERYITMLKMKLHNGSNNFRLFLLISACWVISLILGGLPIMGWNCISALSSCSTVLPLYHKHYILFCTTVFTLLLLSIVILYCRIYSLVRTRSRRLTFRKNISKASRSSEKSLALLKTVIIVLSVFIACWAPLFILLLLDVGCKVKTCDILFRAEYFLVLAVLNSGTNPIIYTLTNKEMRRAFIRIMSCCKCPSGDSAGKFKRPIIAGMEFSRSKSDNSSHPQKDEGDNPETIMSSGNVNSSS

Row | Compound | pEC50
1 | CCCNc1nc(C)cc(-c2noc(-c3cc(C)cc(CC(C)C)n3)n2)n1 [Example 240] | < 5.00
2 | CCCN(C)c1nc(C)cc(-c2noc(-c3cnc(N(C)C(C)C)c(CC)c3)n2)n1 [Example 227] | < 5.00
3 | Cc1cc(CC(C)C)nc(-c2nc(-c3cc(C)nc(NCC(C)C)n3)no2)c1 [Example 242] | < 5.00
4 | CCc1cc(-c2nc(-c3cc(C)nc(N(CC)C(C)C)n3)no2)cnc1N(C)C(C)C [Example 232] | < 5.00
5 | Cc1cc(CC(C)C)nc(-c2nc(-c3cc(C)nc(NC(C)C)n3)no2)c1 [Example 241] | < 5.00
6 | CCCOc1nc(C)cc(-c2nc(-c3cc(C)nc(N(C)CC)c3)no2)n1 [Example 78] | < 5.00
7 | CCCN(CC)c1nc(C)cc(-c2noc(-c3cc(C)cc(CC(C)C)n3)n2)n1 [Example 249] | < 5.00
8 | CCCN(CC)c1nc(C)cc(-c2noc(-c3cnc(N(C)C(C)C)c(CC)c3)n2)n1 [Example 231] | < 5.00
9 | CCOc1nc(C)cc(-c2nc(-c3cc(C)nc(N(C)C)c3)no2)n1 [Example 70] | < 5.00
10 | CCc1cc(-c2nc(-c3cc(C)nc(NCC(C)C)n3)no2)cnc1N(C)C(C)C [Example 224] | < 5.00
11 | COc1nc(C)cc(-c2noc(-c3cc(C)nc(C)c3)n2)n1 [Example 180] | < 5.00
12 | CCc1cc(-c2nc(-c3cc(C)nc(N(C)CC(C)C)n3)no2)cnc1N(C)C(C)C [Example 229] | < 5.00
13 | Cc1cc(CC(C)C)nc(-c2nc(-c3cc(C)nc(OCC(C)C)n3)no2)c1 [Example 255] | < 5.00
14 | Cc1cc(CC(C)C)nc(-c2nc(-c3cc(C)nc(OC(C)C)n3)no2)c1 [Example 254] | < 5.00
15 | COc1nc(C)cc(-c2nc(-c3cc(C)nc(C)c3)no2)n1 [Example 58] | < 5.00
16 | CCN(c1nc(C)cc(-c2noc(-c3cc(C)cc(CC(C)C)n3)n2)n1)C(C)C [Example 250] | < 5.00
17 | Cc1cc(CC(C)C)nc(-c2nc(-c3cc(C)nc(N(C)C(C)C)n3)no2)c1 [Example 246] | < 5.00
18 | CCc1cc(-c2nc(-c3cc(C)nc(OCC(C)C)n3)no2)cnc1N(C)C(C)C [Example 237] | < 5.00
19 | CCN(CC)c1nc(C)cc(-c2noc(-c3cc(C)cc(CC(C)C)n3)n2)n1 [Example 248] | < 5.00
20 | Cc1cc(CC(C)C)nc(-c2nc(-c3cc(C)nc(N(C)CC(C)C)n3)no2)c1 [Example 247] | < 5.00

Same assay, conditions: 35S-GTPγS binding, membrane preparations of CHO cells expressing recombinant human S1P1 receptor; agonistic activity

Row | Compound | pEC50
21 | Cc1cc(-c2noc(-c3cc(C)nc(NCC(C)C)n3)n2)cc(C)n1 [Example 27] | 8.10
22 | CCCNc1nc(C)cc(-c2noc(-c3cc(C)nc(Cl)c3)n2)n1 [Example 185] | 7.66
23 | CCCN(CC)c1nc(C)cc(-c2noc(-c3cnc(CC(C)C)c(C)c3)n2)n1 [Example 211] | 6.10
24 | CNc1nc(C)cc(-c2noc(-c3cc(C)nc(N(C)C)c3)n2)n1 [Example 188] | 6.25
25 | CCCOc1nc(C)cc(-c2noc(-c3cc(C)nc(C)c3)n2)n1 [Example 182] | 6.40
26 | Cc1cc(-c2noc(-c3cc(C)nc(N(C)C(C)C)n3)n2)cc(C)n1 [Example 109] | 8.89
27 | CCc1cc(-c2noc(-c3cc(C)nc(NC4CC4)n3)n2)cc(C)n1 [Example 116] | 8.68
28 | Cc1cc(-c2nc(-c3cc(C)nc(OCC(C)C)n3)no2)cc(N(C)C)n1 [Example 205] | 5.52
29 | Cc1cc(-c2noc(-c3cc(C)nc(OC(C)C)n3)n2)cc(C)n1 [Example 132] | 7.36
30 | CCNc1nc(C)cc(-c2nc(-c3cc(C)nc(CC)c3)no2)n1 [Example 9] | 7.68
31 | Cc1cc(-c2nc(-c3cc(C)nc(N(C)C(C)C)n3)no2)cc(N(C)C)n1 [Example 196] | 6.62
32 | CCCN(C)c1nc(C)cc(-c2noc(-c3cc(C)nc(C)c3)n2)n1 [Example 174] | 7.47
33 | CCNc1nc(CC)cc(-c2nc(-c3cc(C)nc(C)c3)no2)n1 [Example 79, {4-[3-(2,6-Dimethyl-pyridin-4-yl)-[1,2,4]oxadiazol-5-yl]-6-ethyl-pyrimidin-2-yl}-ethyl-amine] | 8.92
34 | COc1nc(C)cc(-c2noc(-c3cc(C)nc(CC(C)C)c3)n2)n1 [Example 94] | 7.57
35 | CCCNc1nc(C)cc(-c2noc(-c3cnc(CC(C)C)c(C)c3)n2)n1 [Example 206] | 5.24
36 | Cc1cc(-c2nnc(-c3cc(C)nc(NC(C)C)n3)o2)cc(C)n1 [Example 100] | 6.89
37 | CCc1cc(-c2nc(-c3cc(C)nc(C)c3)no2)nc(NC(C)C)n1 [Example 147] | 9.15
38 | CNc1nc(C)cc(-c2noc(-c3cc(C)nc(CC(C)C)c3)n2)n1 [Example 81] | 7.52
39 | Cc1cc(-c2noc(-c3cc(C)nc(NC(C)C)n3)n2)cc(N(C)C)n1 [Example 25] | 7.34
40 | CCc1cc(-c2nc(-c3cc(C)nc(NC)n3)no2)cnc1N(C)C(C)C [Example 220] | 6.64
41 | Cc1cc(-c2noc(-c3cc(C)nc(NC(C)C)n3)n2)cc(C)n1 [Example 21] | 8.80
42 | CNc1nc(C)cc(-c2noc(-c3cc(C)cc(CC(C)C)n3)n2)n1 [Example 238] | 6.40
43 | Cc1cc(-c2nc(-c3ccc(C)c(C)n3)no2)nc(NC(C)C)n1 [Example 155] | 7.70

Row | Compound | pEC50
44 | CCNc1nc(C)cc(-c2nc(-c3cc(C)nc(Cl)c3)no2)n1 [Example 12] | 7.57
45 | COc1nc(C)cc(-c2noc(-c3cc(C)nc(N(C)C)c3)n2)n1 [Example 201] | 5.94
46 | CCCNc1nc(C)cc(-c2nnc(-c3cc(C)nc(C)c3)s2)n1 [Example 261] | 6.48
47 | CCCN(CC)c1nc(C)cc(-c2noc(-c3cc(C)nc(C)c3)n2)n1 [Example 178] | 7.96
48 | Cc1cc(-c2noc(-c3cnc(OC(C)C)c(C)c3)n2)nc(NC(C)C)n1 [Example 214] | 6.14
49 | CCc1cc(-c2nc(-c3cc(C)nc(OC)n3)no2)cnc1N(C)C(C)C [Example 233] | 6.72
50 | CCN(c1nc(C)cc(-c2noc(-c3ccnc(C)c3)n2)n1)C(C)C [Example 166] | 5.67
51 | CCc1cnc(-c2noc(-c3cc(C)nc(NC(C)C)n3)n2)cc1C [Example 159] | 7.28
52 | CCc1cc(-c2nc(-c3cc(C)nc(NC(C)C)n3)no2)cnc1N(C)C(C)C [Example 223] | 5.38
53 | CCc1cc(-c2nc(-c3cc(C)nc(C)c3)no2)nc(N(C)C)n1 [Example 149] | 7.20
54 | CCCNc1nc(C)cc(-c2nc(-c3ccnc(C)c3)no2)n1 [Example 101] | 7.96
55 | COc1nc(C)cc(-c2nc(-c3cc(C)nc(C(C)C)c3)no2)n1 [Example 60] | 6.90
56 | CCN(CC)c1nc(C)cc(-c2noc(-c3cc(C)nc(C)c3)n2)n1 [Example 177] | 7.96
57 | COc1nc(C)cc(-c2noc(-c3cc(C)cc(CC(C)C)n3)n2)n1 [Example 251] | 6.70
58 | Cc1cc(-c2noc(-c3cc(CC(C)C)nc(NC(C)C)n3)n2)cc(C)n1 [Example 142] | 7.59
59 | CCCNc1nc(C)cc(-c2nc(-c3cc(C)nc(OC)c3)no2)n1 [Example 119] | 7.52
60 | CCc1cc(-c2noc(-c3cc(C)nc(OCC(C)C)n3)n2)cc(C)n1 [Example 135] | 6.85
61 | CCN(c1nc(C)cc(-c2nc(-c3cc(C)nc(OC)c3)no2)n1)C(C)C [Example 126] | 7.41
62 | Cc1cc(CC(C)C)nc(-c2nc(-c3cc(C)nc(N(C)C)n3)no2)c1 [Example 243] | 6.50
63 | Cc1cc(-c2nc(-c3cc(C)nc(NCC(C)C)n3)no2)cc(Cl)n1 [Example 187] | 7.51
64 | CCN(c1nc(C)cc(-c2noc(-c3cc(C)nc(N(C)C)c3)n2)n1)C(C)C [Example 200] | 7.03
65 | CCc1cc(-c2noc(-c3cc(C)nc(N4CCCC4)n3)n2)cc(C)n1 [Example 118] | 6.73
66 | CCc1cc(-c2nc(-c3cc(C)nc(N(C)C(C)C)n3)no2)cnc1N(C)C(C)C [Example 228] | 5.49

The compounds below were run on circulating lymphocytes (assay: Assessment of in vivo efficacy: circulating lymphocytes after oral administration). Details: 6 h after oral administration of 10 mg/kg to normotensive male Wistar rats, compared to vehicle-treated group; mean ± SEM.
Method: Assessment of In Vivo Efficacy
The efficacy of the compounds of formula (I) is assessed by measuring the circulating lymphocytes after oral administration of 3 to 30 mg/kg of a compound of formula (I) to normotensive male Wistar rats. The animals are housed in climate-controlled conditions with a 12 h-light/dark cycle, and have free access to normal rat chow and drinking water. Blood is collected before and 3, 6 and 24 h after drug administration. Full blood is subjected to hematology using Advia Hematology system (Bayer Diagnostics, Zurich, Switzerland).
All data are presented as mean±SEM. Statistical analyses are performed by analysis of variance (ANOVA) using Statistica (StatSoft) and the Student-Newman-Keuls procedure for multiple comparisons. The null hypothesis is rejected when p<0.05.

Row | Compound | Lymphocyte counts
67 | CCNc1nc(CC)cc(-c2nc(-c3cc(C)nc(C)c3)no2)n1 [Example 79, {4-[3-(2,6-Dimethyl-pyridin-4-yl)-[1,2,4]oxadiazol-5-yl]-6-ethyl-pyrimidin-2-yl}-ethyl-amine] | −70 ± 2%
68 | Cc1cc(-c2noc(-c3cc(C)nc(NC(C)C)n3)n2)cc(C)n1 [Example 21] | −71 ± 2%
